# Measurements from publication PMC10322702 (Nature Chemistry, 2023).
# Values joined by “and” are separate entries in the source; they are usually repeats but may differ in a detail not shown here. Equal values may be shown once. “Also recorded” adds a separate entry of the source. Numbered stars: 1 amine (or outer) side, 2 acyl side, 3 side chain; on linkers, the order of the positions; unused ones are H or OH. Bridge positions count the residues as written; N and C are the ends. Square brackets hold non-standard residues; d marks the D form. Peptide text beside a SMILES is read from it. Acbc(cis-1,3) = O=C([C@H]1C[C@@H](N[*:1])C1)[*:2]
# What was measured:
# [1] = test system: recombinant SARS-CoV-2 M^pro; experiment: M^pro 6 mg ml^–1 in 20 mM HEPES (pH 7.5) and 50 mM NaCl, co-crystallization with GM4; details: SARS-CoV-2, room temperature, crystals grown at 20 °C, up to one week
# [2] = human serum (Cosmo Bio, 12181201); details: 37 °C, up to 100 h
# M^pro = M^pro (Severe acute respiratory syndrome coronavirus 2, UniProt P0DTD1); type: biochemical, SARS-CoV-2
# SARS-CoV-2 M^pro [3] = target: T1, SARS-CoV-2 M^pro (Severe acute respiratory syndrome coronavirus 2, UniProt P0DTD1); experiment: biochemical; type: binding; details: for kon: read-out: ka (kinetic association)
# [4] = Antiviral activity in cells of GM4 and related macrocycles; type: cell-based
# [5] = Cytotoxicity of GM4 and related macrocycles; type: cell-based; details: at concentrations as high as 100 µM
# [6] = Serum stability assay in human serum (LC/MS)
# SARS-CoV-2 M^pro [7] = target: T1, SARS-CoV-2 M^pro; experiment: biochemical; type: biochemical
# Vero E6 cells = test system: Vero E6 cells; design: method as in PMID 33786375; details: read-out: CC50 (half-maximal cytotoxic concentration); cited from earlier work
# [8] = read-out: EC50 (antiviral activity in cells); cited from earlier work
# [9] = 37 °C, incubation time 1 h, relative to 0 h = 100%, technical replicates, 60 min
# [10] = 37 °C, incubation time 4 h, relative to 0 h = 100%, technical replicates, 240 min
# [11] = 37 °C, incubation time 8 h, relative to 0 h = 100%, technical replicates, 480 min
# [12] = 37 °C, incubation time 24 h, relative to 0 h = 100%, technical replicates, 1440 min
# [13] = human, Remaining peptide (%), 37 °C, incubation time 1 h, relative to 0 h = 100%, technical replicates
# [14] = human, Remaining peptide (%), 37 °C, incubation time 4 h, relative to 0 h = 100%, technical replicates
# [15] = human, Remaining peptide (%), 37 °C, incubation time 8 h, relative to 0 h = 100%, technical replicates
# [16] = human, Remaining peptide (%), 37 °C, incubation time 24 h, relative to 0 h = 100%, technical replicates
Molecule,cleaved bond [2],kon (SARS-CoV-2 M^pro [3]),"Remaining peptide (%) [6, 9]","Remaining peptide (%) [6, 10]","Remaining peptide (%) [6, 11]","Remaining peptide (%) [6, 12]",half-life at 10 μM ([6]; human),"remaining at 1 h, 10 μM [6, 13]","remaining at 4 h, 10 μM [6, 14]","remaining at 8 h, 10 μM [6, 15]","remaining at 24 h, 10 μM [6, 16]",IC50 (SARS-CoV-2 M^pro [7]),inhibition at 2.75 µM (SARS-CoV-2 M^pro [7]),inhibition at 8.32 µM (SARS-CoV-2 M^pro [7]),also measured
"^AcyFHγ^1LNLGYRPGc-NH2 ({CH2CO}-[dY]FH[Acbc(cis-1,3)]LNLGYRPG[dC]-NH2; thioether N-13)","L5-N6, 24 h; also recorded: N6-L7, 24 h; also recorded: R10-P11, 24 h; also recorded: P11-G12, 24 h; also recorded: G12-c13, 24 h",,,,,,,,,,,,,,not cleaved [1]: complete intact peptide in the active site pocket
^AcyFHA LNLGYRPGc-NH2 ({CH2CO}-[dY]FHALNLGYRPG[dC]-NH2; thioether N-13),"F2-H3, 24 h; also recorded: L5-N6, 24 h; also recorded: P11-G12, 24 h; also recorded: G12-c13, 24 h",,,,,,,,,,,,,,
"CC(C)C[C@@H]1NC(=O)[C@H](CC(N)=O)NC(=O)[C@H](CC(C)C)NC(=O)[C@H]2C[C@H](C2)NC(=O)[C@H](Cc2c[nH]cn2)NC(=O)[C@H](Cc2ccccc2)NC(=O)[C@@H](Cc2ccc(O)cc2)NC(=O)CSC[C@H](C(N)=O)NC(=O)CNC(=O)[C@@H]2CCCN2C(=O)[C@H](CCCNC(=N)N)NC(=O)[C@H](Cc2ccc(O)cc2)NC(=O)CNC1=O [GM4] ({CH2CO}-[dY]FH[Acbc(cis-1,3)]LNLGYRPG[dC]-NH2; thioether N-13)",,100000 M⁻¹ s⁻¹,104.39% and 106.19%,95.61% and 97.60%,99.57% and 100.45%,95.67% and 101.18%,126 h,104%,95.7%,97.7%,82.2%,50 nM,100%,100%,"hydrolysis of the peptide by M^pro (M^pro): lack of efficient GM4 hydrolysis; antiviral activity in cells [4]: do not manifest obvious antiviral activity; cytotoxicity [5]: no cytotoxicity; Remaining peptide (%) ([6]; 37 °C, incubation time 50 h, relative to 0 h = 100%, technical replicates, 3000 min): 76.05% and 78.63%; Remaining peptide (%) ([6]; 37 °C, incubation time 100 h, relative to 0 h = 100%, technical replicates, 6000 min): 55.56% and 56.89%; fold increase in serum (proteolytic) stability compared to alanine-substituted variant ([6]; GM4 vs GM4γ^14A): 12 fold; remaining at 50 h, 10 μM ([6]; human, Remaining peptide (%), 37 °C, incubation time 50 h, relative to 0 h = 100%, technical replicates): 67.9%; remaining at 100 h, 10 μM ([6]; human, Remaining peptide (%), 37 °C, incubation time 100 h, relative to 0 h = 100%, technical replicates): 55.7%; inhibition at 0.102 µM (SARS-CoV-2 M^pro [7]): 84.7%; inhibition at 0.309 µM (SARS-CoV-2 M^pro [7]): 97.9%; inhibition at 0.933 µM (SARS-CoV-2 M^pro [7]): 100%"
O=c1[nH]cc(-c2cc(-c3cc(Cl)c(F)c(OCc4ccccc4Cl)c3)c(=O)n(-c3cccnc3)c2)c(=O)[nH]1 [compound 23],,,,,,,,,,,,,,,CC50 (Vero E6 cells): 1150 nM
Cn1cnc(Cn2c(=O)[nH]/c(=N\c3cc4cn(C)nc4cc3Cl)n(Cc3cc(F)c(F)cc3F)c2=O)n1 [S-217622],,,,,,,,,,,,,,,EC50 [8]: 370 nM
"CC[C@H](C)[C@@H]1NC(=O)[C@H](CO)NC(=O)[C@H](Cc2ccccc2)NC(=O)[C@H]2C[C@H](C2)NC(=O)[C@H](Cc2c[nH]cn2)NC(=O)[C@H](Cc2ccccc2)NC(=O)[C@@H](Cc2ccc(O)cc2)NC(=O)CSC[C@H](C(N)=O)NC(=O)[C@H](CC(C)C)NC(=O)[C@H](CCCNC(=N)N)NC(=O)[C@H](Cc2ccc(O)cc2)NC(=O)[C@H](CCCNC(=N)N)NC(=O)[C@H](Cc2ccccc2)NC1=O [GM2] ({CH2CO}-[dY]FH[Acbc(cis-1,3)]FSIFRYRL[dC]-NH2; thioether N-13)",,210000 M⁻¹ s⁻¹,55.82% and 51.95%,19.16% and 17.53%,10.08% and 8.62%,1.74% and 1.76%,1.1 h,48.3%,17.5%,9.99%,1.85%,1750 nM,75.7%,96.8%,"Kd (SARS-CoV-2 M^pro [3]): 71 nM; kd (kinetic dissociation) (SARS-CoV-2 M^pro [3]): 15 10^-3 s^-1; Remaining peptide (%) ([6]; 37 °C, incubation time 0.5 h, relative to 0 h = 100%, technical replicates, 30 min): 61.67% and 57.11%; Remaining peptide (%) ([6]; 37 °C, incubation time 2 h, relative to 0 h = 100%, technical replicates, 120 min): 34.08% and 32.68%; remaining at 0.5 h, 10 μM ([6]; human, Remaining peptide (%), 37 °C, incubation time 0.5 h, relative to 0 h = 100%, technical replicates): 57.7%; remaining at 2 h, 10 μM ([6]; human, Remaining peptide (%), 37 °C, incubation time 2 h, relative to 0 h = 100%, technical replicates): 36%"
